{"source": "patent US12383545B1", "about": "“Treatment of migraine” (priority 2018, dated 2025)", "tested_on": "participants with episodic migraine", "assay": "Study B: AIM-D PDA and PI domain scores over 52 weeks", "assay_type": "in vivo, human", "conditions": "atogepant 60 mg, mITT Population", "description": "The Activity in Migraine Diary (AIM-D) evaluates the impact of migraine on the performance of daily activities and physical impairment using an electronic daily diary. In particular, the AIM-D is comprised of two domains that evaluate Performance of Daily Activities (PDA) and Physical Impairment (PI). Assessed items for the AIM-D PDA domain include household chores, errands, leisure activities at home, social or leisure activities outside the home, strenuous physical activities, concentration, and thinking clearly. Assessed items for the AIM-D PI Domain include walking, moving one's body, bending forward, and moving one's head. Response options for each item range from “not difficult at all” to “I could not do it at all” on a 6-point rating scale. The AIM-D domain scores are scaled from 0-100, with higher scores indicating greater impact of migraine, and reductions from baseline in scores indicate improvement. See Cala et al., The Activity Impairment in Migraine-Diary (AIM-D): A Novel Migraine-Specific Patient-Reported Outcome Measure to Assess Functioning Based on Activity Impairment in Episodic and Chronic Migraine Patients, MTIS2018-005 (Sep. 5, 2018).\nThe negative change scores with confidence intervals that exclude 0 indicate a significant reduction in impairment due to migraine in PDA and PI.\nChange scores with confidence intervals excluding zero were present at each time point assessed, indicating significant reduction in impairment due to migraine during the 52-week trial.", "data": [{"smiles": "C[C@@H]1[C@H](c2c(F)ccc(F)c2F)C[C@H](NC(=O)c2cnc3c(c2)C[C@@]2(C3)C(=O)Nc3ncccc32)C(=O)N1CC(F)(F)F", "note": "[atogepant]", "values": [{"measurement": "Change from Baseline in AIM-D Monthly PDA Domain Score, LS Mean Δ from baseline", "setting": "Weeks 1-4, MMRM", "result": "−7.61"}, {"measurement": "Change from Baseline in AIM-D Monthly PI Domain Score, LS Mean Δ from baseline", "setting": "Weeks 1-4, MMRM", "result": "−5.56"}, {"measurement": "Change from Baseline in AIM-D Monthly PDA Domain Score, LS Mean Δ from baseline", "setting": "Weeks 5-8", "result": "−8.16"}, {"measurement": "Change from Baseline in AIM-D Monthly PI Domain Score, LS Mean Δ from baseline", "setting": "Weeks 5-8", "result": "−5.82"}, {"measurement": "Change from Baseline in AIM-D Monthly PDA Domain Score, LS Mean Δ from baseline", "setting": "Weeks 9-12", "result": "−8.53"}, {"measurement": "Change from Baseline in AIM-D Monthly PI Domain Score, LS Mean Δ from baseline", "setting": "Weeks 9-12", "result": "−6.13"}, {"measurement": "Change from Baseline in AIM-D Monthly PDA Domain Score, LS Mean Δ from baseline", "setting": "Weeks 13-16", "result": "−8.66"}, {"measurement": "Change from Baseline in AIM-D Monthly PI Domain Score, LS Mean Δ from baseline", "setting": "Weeks 13-16", "result": "−6.22"}, {"measurement": "Change from Baseline in AIM-D Monthly PDA Domain Score, LS Mean Δ from baseline", "setting": "Weeks 17-20", "result": "−9.02"}, {"measurement": "Change from Baseline in AIM-D Monthly PI Domain Score, LS Mean Δ from baseline", "setting": "Weeks 17-20", "result": "−6.38"}, {"measurement": "Change from Baseline in AIM-D Monthly PDA Domain Score, LS Mean Δ from baseline", "setting": "Weeks 21-24", "result": "−9.11"}, {"measurement": "Change from Baseline in AIM-D Monthly PI Domain Score, LS Mean Δ from baseline", "setting": "Weeks 21-24", "result": "−6.43"}, {"measurement": "Change from Baseline in AIM-D Monthly PDA Domain Score, LS Mean Δ from baseline", "setting": "Weeks 25-28", "result": "−9.16"}, {"measurement": "Change from Baseline in AIM-D Monthly PI Domain Score, LS Mean Δ from baseline", "setting": "Weeks 25-28", "result": "−6.40"}, {"measurement": "Change from Baseline in AIM-D Monthly PDA Domain Score, LS Mean Δ from baseline", "setting": "Weeks 29-32", "result": "−9.22"}, {"measurement": "Change from Baseline in AIM-D Monthly PI Domain Score, LS Mean Δ from baseline", "setting": "Weeks 29-32", "result": "−6.51"}, {"measurement": "Change from Baseline in AIM-D Monthly PDA Domain Score, LS Mean Δ from baseline", "setting": "Weeks 33-36", "result": "−9.61"}, {"measurement": "Change from Baseline in AIM-D Monthly PI Domain Score, LS Mean Δ from baseline", "setting": "Weeks 33-36", "result": "−6.94"}, {"measurement": "Change from Baseline in AIM-D Monthly PDA Domain Score, LS Mean Δ from baseline", "setting": "Weeks 37-40", "result": "−9.61"}, {"measurement": "Change from Baseline in AIM-D Monthly PI Domain Score, LS Mean Δ from baseline", "setting": "Weeks 37-40", "result": "−6.93"}, {"measurement": "Change from Baseline in AIM-D Monthly PDA Domain Score, LS Mean Δ from baseline", "setting": "Weeks 41-44", "result": "−9.77"}, {"measurement": "Change from Baseline in AIM-D Monthly PI Domain Score, LS Mean Δ from baseline", "setting": "Weeks 41-44", "result": "−7.01"}, {"measurement": "Change from Baseline in AIM-D Monthly PDA Domain Score, LS Mean Δ from baseline", "setting": "Weeks 45-48", "result": "−9.79"}, {"measurement": "Change from Baseline in AIM-D Monthly PI Domain Score, LS Mean Δ from baseline", "setting": "Weeks 45-48", "result": "−7.02"}, {"measurement": "Change from Baseline in AIM-D Monthly PDA Domain Score, LS Mean Δ from baseline", "setting": "Weeks 49-52, MMRM", "result": "−10.17"}, {"measurement": "Change from Baseline in AIM-D Monthly PI Domain Score, LS Mean Δ from baseline", "setting": "Weeks 49-52, MMRM", "result": "−7.20"}]}]}
